pKi: −log10 of the molar value.

Data on four compounds can be found in ChEMBL document CHEMBL1147511 (Bioorg Med Chem Lett, 2004).

What all share (type): protein-complex assay
Assay [1] concerns the target Neuronal acetylcholine receptor; alpha4/beta4 (Rattus norvegicus, UniProt P09483+P12392). In words: Binding affinity towards Nicotinic acetylcholine receptor alpha4-beta4 using [3H]epibatidine.
The target in assay [2] is Neuronal acetylcholine receptor; alpha2/beta4 (Rattus norvegicus, UniProt P12389+P12392). In words: Binding affinity towards Nicotinic acetylcholine receptor alpha2-beta4 using [3H]epibatidine.
The target of assay [3] is T1, Neuronal acetylcholine receptor; alpha3/beta4 (Rattus norvegicus, UniProt P04757+P12392). The experiment in a line: Binding affinity towards Nicotinic acetylcholine receptor alpha3-beta4.
The target of assay [4] is Neuronal acetylcholine receptor; alpha2/beta2 (Rattus norvegicus, UniProt P12389+P12390). In words: Binding affinity towards nicotinic acetylcholine receptor alpha2-beta2 using [3H]epibatidine.
For assay [5], the target named is Neuronal acetylcholine receptor; alpha4/beta2 (Rattus norvegicus, UniProt P09483+P12390). In words: Binding affinity towards Nicotinic acetylcholine receptor alpha4-beta2 using [3H]epibatidine.
Assay [6] deals with Neuronal acetylcholine receptor; alpha3/beta2 (Rattus norvegicus, UniProt P04757+P12390). The experiment in a line: Binding affinity towards Nicotinic acetylcholine receptor alpha3-beta2 using [3H]epibatidine.
Assay [7] concerns the target T1, Neuronal acetylcholine receptor; alpha3/beta4. The experiment in a line: Binding affinity towards Nicotinic acetylcholine receptor alpha3-beta4 using [3H]epibatidine.

Chain of Neuronal acetylcholine receptor; alpha4/beta2 (P09483 whole entry): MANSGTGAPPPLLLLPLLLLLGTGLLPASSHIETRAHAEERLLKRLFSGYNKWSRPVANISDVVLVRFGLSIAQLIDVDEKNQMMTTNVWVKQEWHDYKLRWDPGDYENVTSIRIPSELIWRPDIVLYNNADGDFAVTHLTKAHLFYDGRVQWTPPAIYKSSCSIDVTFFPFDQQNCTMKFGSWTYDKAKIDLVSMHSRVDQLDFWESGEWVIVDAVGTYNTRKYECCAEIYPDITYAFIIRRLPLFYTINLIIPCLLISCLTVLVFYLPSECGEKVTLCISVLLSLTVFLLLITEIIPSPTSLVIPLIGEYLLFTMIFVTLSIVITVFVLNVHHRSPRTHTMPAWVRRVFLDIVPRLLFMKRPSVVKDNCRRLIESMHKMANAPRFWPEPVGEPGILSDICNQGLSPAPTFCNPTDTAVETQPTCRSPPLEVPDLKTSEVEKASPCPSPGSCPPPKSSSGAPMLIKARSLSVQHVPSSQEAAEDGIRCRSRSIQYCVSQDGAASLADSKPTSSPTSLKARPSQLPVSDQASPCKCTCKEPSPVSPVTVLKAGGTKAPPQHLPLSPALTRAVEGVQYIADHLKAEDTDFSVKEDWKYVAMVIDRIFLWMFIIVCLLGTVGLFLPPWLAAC
Chain of Neuronal acetylcholine receptor; alpha4/beta2 (P12390 whole entry): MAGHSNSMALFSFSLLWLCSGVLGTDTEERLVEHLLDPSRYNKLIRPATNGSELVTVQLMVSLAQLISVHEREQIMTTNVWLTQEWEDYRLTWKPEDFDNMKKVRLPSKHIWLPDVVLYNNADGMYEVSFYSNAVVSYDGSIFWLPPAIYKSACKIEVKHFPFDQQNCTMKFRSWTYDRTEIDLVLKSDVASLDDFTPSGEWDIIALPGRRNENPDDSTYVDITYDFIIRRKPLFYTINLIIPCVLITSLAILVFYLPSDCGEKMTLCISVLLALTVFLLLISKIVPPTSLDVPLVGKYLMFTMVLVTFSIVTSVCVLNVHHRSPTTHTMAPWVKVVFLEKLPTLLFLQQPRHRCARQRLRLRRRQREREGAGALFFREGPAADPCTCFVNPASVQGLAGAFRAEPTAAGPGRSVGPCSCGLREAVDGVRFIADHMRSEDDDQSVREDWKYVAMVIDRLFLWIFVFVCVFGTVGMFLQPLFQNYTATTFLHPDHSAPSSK
Chain of Neuronal acetylcholine receptor; alpha4/beta4 (P09483 whole entry): as the sequence (P09483 whole entry) above
Chain of Neuronal acetylcholine receptor; alpha4/beta4 (P12392 whole entry): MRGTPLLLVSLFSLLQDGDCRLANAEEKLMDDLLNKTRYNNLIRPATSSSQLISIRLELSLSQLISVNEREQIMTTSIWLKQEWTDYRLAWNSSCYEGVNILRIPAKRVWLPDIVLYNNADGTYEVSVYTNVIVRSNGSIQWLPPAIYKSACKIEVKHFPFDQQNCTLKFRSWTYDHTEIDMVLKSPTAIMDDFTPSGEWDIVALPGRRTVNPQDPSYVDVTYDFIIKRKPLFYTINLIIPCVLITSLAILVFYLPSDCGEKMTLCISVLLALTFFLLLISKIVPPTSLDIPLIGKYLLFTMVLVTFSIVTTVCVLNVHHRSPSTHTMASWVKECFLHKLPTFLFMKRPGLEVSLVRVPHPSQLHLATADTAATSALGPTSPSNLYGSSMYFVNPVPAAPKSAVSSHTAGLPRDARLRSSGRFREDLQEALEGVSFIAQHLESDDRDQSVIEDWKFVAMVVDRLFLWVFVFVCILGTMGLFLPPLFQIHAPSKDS
Chain of Neuronal acetylcholine receptor; alpha2/beta2 (P12389 whole entry): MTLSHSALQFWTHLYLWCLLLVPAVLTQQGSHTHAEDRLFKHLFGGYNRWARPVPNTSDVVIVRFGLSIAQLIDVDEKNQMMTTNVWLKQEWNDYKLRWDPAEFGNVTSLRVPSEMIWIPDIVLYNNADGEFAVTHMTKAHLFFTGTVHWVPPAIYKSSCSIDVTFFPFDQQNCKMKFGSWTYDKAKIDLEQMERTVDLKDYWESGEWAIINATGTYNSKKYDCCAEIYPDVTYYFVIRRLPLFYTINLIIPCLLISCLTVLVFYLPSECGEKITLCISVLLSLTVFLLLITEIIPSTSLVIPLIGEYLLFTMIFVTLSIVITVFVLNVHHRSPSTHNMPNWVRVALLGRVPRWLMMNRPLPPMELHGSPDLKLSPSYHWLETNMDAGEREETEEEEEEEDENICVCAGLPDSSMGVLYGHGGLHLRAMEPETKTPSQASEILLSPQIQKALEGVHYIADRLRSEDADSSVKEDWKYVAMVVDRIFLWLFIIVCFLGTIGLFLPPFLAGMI
Chain of Neuronal acetylcholine receptor; alpha2/beta2 (P12390 whole entry): as the sequence (P12390 whole entry) above
Chain of Neuronal acetylcholine receptor; alpha2/beta4 (P12389 whole entry): as the sequence (P12389 whole entry) above
Chain of Neuronal acetylcholine receptor; alpha2/beta4 (P12392 whole entry): as the sequence (P12392 whole entry) above
Chain of Neuronal acetylcholine receptor; alpha3/beta2 (P04757 whole entry): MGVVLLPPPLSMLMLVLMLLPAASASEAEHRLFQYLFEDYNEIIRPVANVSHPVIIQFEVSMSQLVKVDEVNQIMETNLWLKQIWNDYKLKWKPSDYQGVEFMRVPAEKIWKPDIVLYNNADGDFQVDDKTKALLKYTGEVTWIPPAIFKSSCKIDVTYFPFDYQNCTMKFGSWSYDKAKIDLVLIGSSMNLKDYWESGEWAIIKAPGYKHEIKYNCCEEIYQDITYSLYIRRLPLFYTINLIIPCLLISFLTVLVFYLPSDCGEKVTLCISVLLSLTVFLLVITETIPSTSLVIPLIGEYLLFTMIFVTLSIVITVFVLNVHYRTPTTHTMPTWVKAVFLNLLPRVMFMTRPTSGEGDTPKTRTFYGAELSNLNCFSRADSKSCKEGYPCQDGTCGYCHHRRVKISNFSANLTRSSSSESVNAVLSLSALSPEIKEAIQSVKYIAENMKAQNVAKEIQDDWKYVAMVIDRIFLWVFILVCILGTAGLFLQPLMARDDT
Chain of Neuronal acetylcholine receptor; alpha3/beta2 (P12390 whole entry): as the sequence (P12390 whole entry) above
T1 sequence (P04757 whole entry): as the sequence (P04757 whole entry) above
T1 sequence (P12392 whole entry): as the sequence (P12392 whole entry) above

As a reminder, the pKi is the negative decadic logarithm of the Ki, by convention in mol/L. Low values mean a high Ki, high ones a low Ki. As to `Clc1ccc(C2CC3CCC2N3CCN2C3CCC2C(c2ccc(Cl)nc2)C3)cn1` (centres undefined), the pKi was 7.56 in assay [1]; 7.57 in assay [2]; 7.32 in assay [3]; 8.68 in assay [4]; 8.03 in assay [5]; 8.26 in assay [6].

Regarding `Clc1ccc(C2CC3CCC2N3CCCCCCN2C3CCC2C(c2ccc(Cl)nc2)C3)cn1` (centres undefined), the pKi in assay [1] was 7.39; in assay [2], 7.32; in assay [7], 7.09; in assay [4], 8.50; in assay [5] it was 8.04; in assay [6], 8.21.

As to `Clc1ccc(C2CC3CCC2N3CCCN2C3CCC2C(c2ccc(Cl)nc2)C3)cn1` (centres undefined), the negative-log Ki (pKi) is 7.27 in assay [1]; 7.24 in assay [2]; 6.95 in assay [7]; 8.26 in assay [4]; 7.80 in assay [5]; 8.05 in assay [6].

In the case of `Clc1ccc(C2CC3CCC2N3CCCCCCCCCCN2C3CCC2C(c2ccc(Cl)nc2)C3)cn1` (centres undefined), the pKi was 7.21 in assay [1]; 7.14 in assay [2]; 6.86 in assay [7]; 8.12 in assay [4]; 7.67 in assay [5]; 7.90 in assay [6].
